Patent US7259278B2, “Anti-S-phase tubulin ligands” (Cytoskeleton Inc., priority 2000, dated 2007)

How the values were obtained:
CEM cells [1] = settings: 4 n DNA; cited from earlier work
Prostate carcinoma = Prostate carcinoma model; format: in vivo, mice; settings: 90 days after tumor implant
Description: FIG. 11. Prostate carcinoma inhibition by IAABE. • *—N,N-dimethylacetamide, propylene glycol and Tween 80 (1:2:1 v/v/v) • 1—2.5×10^6 tumor cells were injected s.c. on day 0, treatment started at day 1. • 2—TI%=Tumor growth inhibition 1 week after last treatment. • 3—TF/T=Tumor free mice at day 90 after tumor implant.

CEM cells [2] = assay: Immunofluorescence staining of microtubule structure and apoptotic DNA analysis; format: cell-based; settings: ID90 concentration
Description: FIG. 5. Interferences with the formation of microtubule structure in IAABE treated CEM cells. […] Insert is DNA extracted from the same samples run on 1% agarose gels and stained with ethidium bromide. Note absence of microtubule structure and appearance of apoptotic nuclei in IAABE treated cells. Note strong signal of apoptotic DNA ladder in IAABE treated cells compared to vinblastine and paclitaxel samples.
Immunofluorescence staining of microtubule structure. CEM cells incubated in the presence or absence of IAABE were collected and centrifuged in a Cytospin centrifuge at 700 xg for 5 min. The slides were air dried and fixed with methanol at −20° C. for 20 min. The slides were incubated in PBS containing 1% BSA at 37° C. for 30 min. After washing with PBS for 3 min, cells on the slides were covered with 30 ul of antihuman beta-tubulin monoclonal antibody (4 ug/ml; Accurate Antibody, Westbury, N.Y.) and placed in a humid chamber at 24° C. for 60 min. The slides were washed with PBS three times for 3 min each, followed by staining with 10 ul of FTTC-labeled goat anti-mouse antibody (Coulter, Hialeah, Fla.) in a humid chamber at 24° C. for 60 min. After washing in PBS, the stained cells were visualized under a fluorescence microscope (model MC63, Zeiss, Jena, Germany).
Apoptotic DNA analysis. […]

[3] = test system: lymphoma cells (Daudi/wt and Daudi/MDR); assay: Cytotoxicity: cancericidal index, lymphoma cells versus normal cells; format: cell-based, human
Description: FIG. 9. Cytotoxicity of IAABE against different tumor cells.
Cytotoxicity assays. Cells in suspension were seeded into 96-well plates at 10^5 cells/well, and the compounds added, total well volume was 250 μl. Cells were cultured for 48 h and the viability measured by trypan blue exclusion. ID50 and ID90 values were determined by the concentration of compound required to induce cell death in 50 or 90% of cells respectively.

[4] = target: mitochondrial permeability transition pore complex; settings: read-out: Kd of interaction with a component (probably tubulin) on the mitochondrial outer membrane; cited from earlier work

SMILES | cell cycle phase of arrest (CEM cells [1]) | tumor free mice (Prostate carcinoma) | microtubule structure by immunofluorescence (CEM cells [2]) | cancericidal index, ratio (ID50 normal cells/ID50 cancer cells) [3] | Kd [4]
CC[C@]1(O)C[C@@H]2CN(CCc3c([nH]c4ccccc34)[C@@](C(=O)OC)(c3cc4c(cc3OC)N(C)[C@H]3[C@@](O)(C(=O)OC)[C@H](OC(C)=O)[C@]5(CC)C=CCN6CC[C@]43[C@@H]65)C2)C1 [vinblastine] | G2/M phase | no tumor free mice | punctuated aggregates of tubulin | 42 | –
CC(=O)O[C@H]1C(=O)[C@@]2(C)[C@H]([C@H](OC(=O)c3ccccc3)[C@]3(O)C[C@H](OC(=O)[C@H](O)[C@@H](NC(=O)c4ccccc4)c4ccccc4)C(C)=C1C3(C)C)[C@]1(OC(C)=O)CO[C@@H]1C[C@@H]2O [paclitaxel] | G2/M phase | no tumor free mice | dense mitotic spindle staining | 24 | 5 to 20 µM
